{"source": "patent US12329799B2", "about": "“Peptidyl inhibitors of calcineurin-NFAT interaction” (Ohio State Innovation Foundation, priority 2018, dated 2025)", "key": {"HCT116 cell spheroids": {"test_system": "HCT116 cell spheroids", "assay": "Cellular entry and intracellular stability by MALDI-TOF MS imaging", "format": "cell-based", "details": "5 μM, 24 h of incubation", "experimental": "Intracellular Stability. HCT116 cell spheroids in RPMI-1640 medium supplemented with 10% FBS and 1% penicillin/streptomycin were treated with 5 μM CNI103 for 4 or 24 h. Spheroids were washed three times with warm DPBS, quickly frozen, embedded in a solid support and cryo-sectioned. Prior to analysis, sinapinic acid was sublimed onto individual slides, which were subsequently imaged using a Bruker ultrafleXtreme MALDI-TOF-TOF mass spectrometer. The spectra were analyzed for intact CNI103 as well as proteolytic degradation fragments of interest. The MS signal intensity data were used to generate Heatmaps, scaled relative to the most intense signal, for each time point and fragment."}, "[1]": {"assay": "Caco-2 permeability assay", "format": "in vitro ADME", "details": "human, Caco-2, pH 7.4", "experimental": "(§1) Caco-2 permeability assay. To assay the permeability of test compounds by Caco-2 cell model, Caco-2 cells were cultured to confluency before being trypsinized and seeded onto filter transwell inserts at a density of 30,000 cells/well in DMEM medium. Cells were cultured in a humidified atmosphere with 5% CO2 at 37° C. After overnight attachment, cell medium was replaced with fresh medium at both apical and basolateral sides every other day. The cell monolayers are ready for the assay 20 days post seeding. […] The dosing solution at 10 μM was obtained by diluting 10 mM stock solution in HBSS medium (pH 7.4, 25 mM HEPES) freshly before the assay. Terfenadine (25 ng/mL) and Tolbutamide (50 ng/mL) were added into dosing solution as internal standards. […] The culture medium from either the basolateral side (plate B) or apical side (plate A) were aspirated and then rinsed with HBSS medium once. Afterwards, the dosing medium was added to either basolateral or apical side. Following the incubation, 100 microliter samples from both sides were harvested at time 0 and time 90 min. Samples were quenched with acetonitrile/methanol (1:1 v/v), centrifuged, and analyzed on a Shimadzu reversed-phase HPLC and Sciex API4500 Q trap instrument.\n(§2) Permeability parameters were calculated using the following equations and shown in Table 10: Papp=(Conc.receiver,90 min*Volumereceiver)/(Time*Membrane Area*Conc.donor,0 min) Efflux Ratio=Papp[B to A]/Papp[A to B]"}, "Caco-2 cell monolayers": {"test_system": "Caco-2 cell monolayers", "assay": "Caco-2 permeability assay", "format": "in vitro ADME", "experimental": "as §1, §2"}, "[2]": {"assay": "Liver microsome stability assay", "format": "in vitro ADME", "details": "mouse liver microsome", "experimental": "Liver microsome stability assay. Liver microsome stability was assessed using mouse microsome (cat. M1000, XenoTech). Ten mM stock solution of CNI103 was similarly prepared in DMSO. One hundred micromolar of CNI103 solution was prepared by diluting the DMSO stock in phosphate buffer (50 mM potassium phosphate, pH 7.4). To assay the stability, liver microsomes (final concentration 0.5 mg/mL) were mixed with testing samples gently and incubated at 37° C. for 5 min. At varying time points post reaction (0, 5, 15, 30, and 60 min), 25 microliter aliquots were withdrawn and each aliquot (25 microliter) was quenched with 300 μL of an internal standard solution (25 ng/mL terfenadine in 1:1 v/v methanol/acetonitrile) followed by vigorous vortexing and centrifugation. To assess metabolism by P450 enzymes, the microsome degradation reaction was supplemented with NADPH (final 1 mM) followed by gentle mixing. 100 μL aliquots of the reaction mixture were withdrawn at 0, 30, or 60 min, diluted two fold with distilled water, and subjected to LC-MS/MS analysis on a reversed-phase HPLC coupled with Sciex 4500 Q-trap based quantification."}, "[3]": {"assay": "Stability in mouse hepatocytes", "format": "in vitro ADME", "experimental": "(§3) Stability of CNI103 in mouse hepatocytes. Hepatocyte stability was assessed by using mouse hepatocyte (cat. M005052, BioIVT). Mouse hepatocytes were revived following manufacturer's procedure with Cryopreserved Hepatocyte Recovery Medium and used for the assay when cell viability was greater than 70%. Testing compound (at 2 μM) was mixed with mouse hepatocytes at 37° C. in a humidified incubator with 5% CO2. Final hepatocyte cell density was 2 million per mL. […] of the resulting supernatant was diluted two fold with distilled water and analyzed by reversed-phase HPLC coupled with Sciex 4500 Q-trap based quantification."}, "mouse hepatocytes": {"test_system": "mouse hepatocytes", "assay": "Stability in mouse hepatocytes", "format": "in vitro ADME", "details": "2 μM", "experimental": "as §3"}, "in vitro": {"assay": "in vitro", "format": "in vitro ADME", "set-up": "dose or concentration left out as unconfirmed", "details": "mouse", "experimental": "Plasma binding was assessed using mouse plasma obtained from in-life studies. CNI103 was diluted to […] in pre-warmed mouse plasma. The solution was added to the left chamber of a commercial plate based RED (rapid equilibrium dialysis) device. Isotonic sodium phosphate buffer (100 mM sodium phosphate, 100 mM sodium chloride, pH 7.4) was added to the outer chamber of the RED device and the plate was incubated at 37° C. for five hours. Aliquots of the buffer and the plasma were withdrawn before and after the incubation and the concentrations of free and bound test compound were determined by LC/MS/MS analysis. To test for plasma stability, the dosing solution was also incubated at 37° C. for 5 hours and the concentration of CNI103 was determined by LC/MS/MS analysis as described above.\nThe calculation of percentage binding is calculated using the following equations and the results are presented in Table 13: Binding %=(Cpe−Cb)/Cpe×100 • Cpe=Conc. of test compound in plasma at equilibrium • Cb=Conc. of test compound in buffer at equilibrium % Stability of test compound=(Conc. of stability sample/Conc. of time zero sample)×100 % Recovery=(Cpe+Cb)/Conc. of stability sample×100"}, "[4]": {"assay": "Stability in simulated gastric fluid (SGF)", "format": "in vitro ADME", "experimental": "(§4) Stability of CNI103 in simulated gastric fluid (SGF) was evaluated by diluting CNI103 (final 5 μM) in FaSSGF buffer (pH 1.2), which was prepared from FaSSGF powder (cat no. FFF01, BioRelavant). Similarly, stability of CNI103 in simulated intestinal fluid (SIF) was evaluated by diluting CNI103 (final 5 μM) in FaSSIF buffer (pH 6.5), which was prepared from FaSSIF powder (cat no. FFF-1017-B, BioRelavant) supplemented with Lecithin and maleic acid. The solutions were incubated at 37° C. for 5, 15, 30, 60, or 120 min, and the concentration of remaining CNI103 was determined by LC/MS/MS analysis as described above."}, "[5]": {"assay": "Stability in simulated intestinal fluid (SIF)", "format": "in vitro ADME", "experimental": "as §4"}}, "note": "Positions of bridges follow the written chain, without caps; N, C: chain ends. Non-standard residues stand in square brackets, D forms with d. Residues, ends and D or L forms follow the SMILES beside them. Chains are numbered I, II in the order given. *: point of attachment. 2Nal = N[C@@H](Cc1ccc2ccccc2c1)C(=O)O; Val(3-OH) = CC(C)(O)[C@H](N)C(=O)O; Tle = CC(C)(C)[C@H](N)C(=O)O; X1 = O=C(c1ccnc(Cl)c1Cl)*; AEEA = NCCOCCOCC(=O)O", "data": [{"compound": "CC[C@H](C)[C@H](NC(=O)[C@@H](NC(=O)c1ccnc(Cl)c1Cl)C(C)(C)C)C(=O)N[C@H](C(=O)N[C@H](C(=O)N[C@H](C(=O)N[C@@H](CCC(N)=O)C(=O)N[C@@H](Cc1c[nH]cn1)C(=O)N[C@H](CC(C)C)C(=O)N[C@@H](CO)C(=O)NCCOCCOCC(=O)N[C@@H](CCCCNC(=O)CC[C@@H]1NC(=O)[C@@H](CCCNC(=N)N)NC(=O)[C@H](CCCNC(=N)N)NC(=O)[C@@H](CCCNC(=N)N)NC(=O)[C@H](CCCNC(=N)N)NC(=O)[C@H](Cc2ccc3ccccc3c2)NC(=O)[C@@H](Cc2ccccc2)NC1=O)C(N)=O)[C@@H](C)O)[C@@H](C)CC)C(C)(C)O", "note": "[CNI103, (DCNA)-Tle-Ile-Bhv-Ile-Thr-Gln-His-(D-Leu)-Ser-miniPEG-Lys{[cyclo-(Gln-(D-Arg)-Arg-(D-Arg)-Arg-(2-Nal)-(D-Phe)]}-NH2] (I: X1-[Tle]I[Val(3-OH)]ITQH[dL]S[AEEA]K-NH2 / II: cyclo([2Nal]R[dR]R[dR]E[dF]); amide I:11-II:6 (inferred); ring closure inferred)", "values": [{"measurement": "intracellular degradation", "setting": "HCT116 cell spheroids", "result": "No significant degradation product signal"}, {"measurement": "Papp A→B at 90 min, 10 μM", "setting": "[1]; N = 2, 10 μM, 90 min", "result": 7.5, "unit": "×10⁻⁶ cm/s"}, {"measurement": "Papp B→A at 90 min, 10 μM", "setting": "[1]; N = 2, 10 μM, 90 min", "result": 2.1, "unit": "×10⁻⁶ cm/s"}, {"measurement": "efflux ratio at 90 min, 10 μM", "setting": "[1]; Papp[B to A]/Papp[A to B]", "result": 0.3}, {"measurement": "Pgp Substrate", "setting": "Caco-2 cell monolayers", "result": "No"}, {"measurement": "remaining at 0.25 h", "setting": "[2]; liver microsomes, pH 7.4, 15 min, read-out: % remaining (+NADPH)", "result": 95.8, "unit": "%"}, {"measurement": "remaining at 0.5 h", "setting": "[2]; liver microsomes, pH 7.4, 30 min, read-out: % remaining (+NADPH)", "result": 76, "unit": "%"}, {"measurement": "remaining at 1 h", "setting": "[2]; liver microsomes, pH 7.4, 60 min, read-out: % remaining (+NADPH)", "result": 75.1, "unit": "%"}, {"measurement": "% remaining (+NADPH)", "setting": "[2]; 0 min", "result": 100.0, "unit": "%"}, {"measurement": "% remaining (−NADPH)", "setting": "[2]; 0 min", "result": 100.0, "unit": "%"}, {"measurement": "% remaining (+NADPH)", "setting": "[2]; 5 min", "result": 131.1, "unit": "%"}, {"measurement": "% remaining (−NADPH)", "setting": "[2]; 30 min", "result": 113.6, "unit": "%"}, {"measurement": "% remaining (−NADPH)", "setting": "[2]; 60 min", "result": 70.8, "unit": "%"}, {"measurement": "remaining at 0.25 h, 2 μM", "setting": "[3]; 15 min", "result": 103, "unit": "%"}, {"measurement": "remaining at 0.5 h, 2 μM", "setting": "[3]; 30 min", "result": 101, "unit": "%"}, {"measurement": "remaining at 1 h, 2 μM", "setting": "[3]; 60 min", "result": 120, "unit": "%"}, {"measurement": "% remaining", "setting": "mouse hepatocytes; 0 min", "result": 100.00, "unit": "%"}, {"measurement": "% remaining", "setting": "mouse hepatocytes; 90 min", "result": 141.77, "unit": "%"}, {"measurement": "% remaining", "setting": "mouse hepatocytes; 120 min", "result": 124.89, "unit": "%"}, {"measurement": "recovery at 5 hours", "setting": "in vitro; pH 7.4", "result": 130, "unit": "%"}, {"measurement": "remaining at 5 h", "setting": "in vitro; plasma", "result": 110, "unit": "%"}, {"measurement": "fraction unbound at 5 h", "setting": "in vitro; plasma, pH 7.4", "result": 0.024}, {"measurement": "% remaining", "setting": "[4]; SGF (FaSSGF, pH 1.2), 37° C., 0 min, n = 2", "result": 100.00, "unit": "%"}, {"measurement": "remaining at 5 min, 5 μM", "setting": "[4]; simulated gastric fluid (FaSSGF), pH 1.2, SGF, 5 min", "result": 93.7, "unit": "%"}, {"measurement": "remaining at 0.25 h, 5 μM", "setting": "[4]; simulated gastric fluid (FaSSGF), pH 1.2, SGF, 15 min", "result": 87.4, "unit": "%"}, {"measurement": "remaining at 0.5 h, 5 μM", "setting": "[4]; simulated gastric fluid (FaSSGF), pH 1.2, SGF, 30 min", "result": 88.3, "unit": "%"}, {"measurement": "remaining at 1 h, 5 μM", "setting": "[4]; simulated gastric fluid (FaSSGF), pH 1.2, SGF, 60 min", "result": 106, "unit": "%"}, {"measurement": "remaining at 2 h, 5 μM", "setting": "[4]; simulated gastric fluid (FaSSGF), pH 1.2, SGF, 120 min", "result": 103, "unit": "%"}, {"measurement": "% remaining", "setting": "[5]; SIF (FaSSIF, pH 6.5), 37° C., 0 min, n = 2", "result": 100.00, "unit": "%"}, {"measurement": "remaining at 5 min, 5 μM", "setting": "[5]; simulated intestinal fluid (FaSSIF), pH 6.5, SIF, 5 min", "result": 92.3, "unit": "%"}, {"measurement": "remaining at 0.25 h, 5 μM", "setting": "[5]; simulated intestinal fluid (FaSSIF), pH 6.5, SIF, 15 min", "result": 109, "unit": "%"}, {"measurement": "remaining at 0.5 h, 5 μM", "setting": "[5]; simulated intestinal fluid (FaSSIF), pH 6.5, SIF, 30 min", "result": 109, "unit": "%"}, {"measurement": "remaining at 1 h, 5 μM", "setting": "[5]; simulated intestinal fluid (FaSSIF), pH 6.5, SIF, 60 min", "result": 95.9, "unit": "%"}, {"measurement": "remaining at 2 h, 5 μM", "setting": "[5]; simulated intestinal fluid (FaSSIF), pH 6.5, SIF, 120 min", "result": 75.6, "unit": "%"}]}]}
